Measurements as given in the Bradley open melting point set (2014).
Values joined by “and” are separate entries in the source; they are usually repeats but may differ in a detail not shown here. Equal entries are not always repeated.

SMILES | melting point
CCCCCCCCCC(=O)O [Decanoic acid] | 31 °C
O=c1[nH]cc(F)c(=O)[nH]1 [fluorouracil] | 282 °C
CCC1(CC)C(=O)NCC(C)C1=O (configuration not stated) [methyprylon] | 75.5 °C
CCCCS [1-butanethiol] | -116 °C
O=C1CCC2C3CCC(=O)C3C12 (configuration not stated) [octahydrocyclobuta[1,2-a:3,4-a']dicyclopentene-1,6-dione] | 67 °C
CCCCCCSc1nc[nH]n1 [3-n-hexylthio-1,2,4-triazole] | 67 °C
CCCCC(CC)CO (configuration not stated) [2-Ethylhexan-1-ol] | -76 °C
OCC(F)F [2,2-difluoroethanol] | -28 °C
OC/C(Br)=C(\Br)CO [trans-2,3-dibromo-2-butene-1,4-diol] | 113 °C
CCCC=O [butanal] | -97 °C
CC(=O)OC[C@H]1O[C@@H](OC(C)=O)[C@H](OC(C)=O)[C@@H]1OC(C)=O (stereo in doubt) [beta-D-ribofuranose 1,2,3,5-tetraacetate] | 82 °C
C=C(C)C(=C)C [2,3-dimethyl-1,3-butadiene] | -76 °C
Nc1cccc(Cl)c1 [m-chloroaniline] | -10 °C
O=C(O)[C@@H](O)[C@H](O)C(=O)O [D-tartaric acid] | 168 °C
CCOc1ccc(N)cc1 [p-phenetidine] | 3 °C
CNC(C)C(O)c1ccccc1 (configuration not stated) [2-(Methylamino)-1-phenylpropan-1-ol] | 36 °C
CC(=O)N[C@@H](CCC(=O)O)C(=O)O [N-acetyl-l-glutamic acid] | 197 °C
ClCCl [dichloromethane] | -95 °C
Cc1ccc(Cl)c([N+](=O)[O-])c1 [4-chloro-3-nitrotoluene] | 7 °C
CCC1(CC)C(=O)NC(=O)NC1=O [Barbital] | 190 °C
CC1CNCC(C)O1 (configuration not stated) [2,6-Dimethylmorpholine] | -85 °C

SMILES | melting point
Nc1ccc(N)cc1 [Benzene-1,4-diamine] | 140 °C
OC1CCCC1 [Cyclopentanol] | -19 °C
C(O)[C@H](O)[C@@H](O)[C@@H](O)CO [L-arabitol] | 101 °C
c1ccc2c(c1)Nc1ccccc1S2 [phenothiazine] | 184 °C (3×) and 188 °C and 185 °C (2×)
C(=NC1CCCCC1)=NC1CCCCC1 [N,N'-dicyclohexylcarbodiimide] | 35 °C
CC(C)(C)Cl [tert-butyl chloride] | -26 °C
C1CCOC1 [Tetrahydrofuran] | -108 °C
CCCCCCCC(C)O (configuration not stated) [2-nonanol] | -35 °C
CC(C)CCC[C@@H](C)[C@H]1CC[C@H]2[C@@H]3CC=C4C[C@@H](O)CC[C@]4(C)[C@H]3CC[C@]12C [Cholesterol] | 148 °C
N#CCC(=O)c1ccccc1 [benzoylacetonitrile] | 81 °C
C1CCOC1 [tetrahydrofuran] | -108 °C
CCCCCBr [1-bromopentane] | -88 °C
N#CCCCCC#N [adiponitrile] | 2 °C
[2H]C([2H])=C(C(=O)OC([2H])([2H])[2H])C([2H])([2H])[2H] [(~2~H_3_)Methyl 2-(~2~H_3_)methyl(~2~H_2_)prop-2-enoate] | -48 °C
[O-][n+]1onc2ccccc21 [benzofuroxan] | 69 °C
C1CCCCC1 [Cyclohexane] | 7 °C
CCC(=O)OC(Cc1ccccc1)(c1ccccc1)C(C)CN(C)C (configuration not stated) [propoxyphene] | 75 °C
Cc1cn([C@H]2C[C@H](N=[N+]=[N-])[C@@H](CO)O2)c(=O)[nH]c1=O [Zidovudine] | 109 °C
OCCOc1ccccc1 [2-phenoxyethanol] | 13 °C
C=CCCCCCCCC [1-decene] | -66.1 °C

Next, values leading:

melting point | SMILES
163 °C | OC(c1ccccc1)(c1ccccc1)c1ccccc1 [triphenylmethanol]
101 °C | O=C(c1ccccc1)c1ccc(-c2ccccc2)cc1 [4-benzoylbiphenyl]
121 °C | C/C=C/C1Nn2c(nnc2-c2cccnc2)S1 (configuration not stated)
69 °C | O=C(Oc1ccccc1)c1ccccc1 [phenyl benzoate]
177 °C | NC(N)=S [thiourea]
197 °C | O=C(O)Cc1nn(Cc2nc3cc(C(F)(F)F)ccc3s2)c(=O)c2ccccc12 [zopolrestat]
156 °C | CC(C)(C)c1cc(CC(=O)O)cc(C(C)(C)C)c1O [3,5-di-tert-butyl-4-hydroxyphenylacetic acid]
77 °C | O=C(/C=C/c1ccc(Br)o1)c1ccco1 [(2E)-3-(5-bromofuran-2-yl)-1-furan-2-ylprop-2-en-1-one]
60 °C | C(#Cc1ccccc1)c1ccccc1 [diphenylacetylene]
285 °C | COc1cc2nc(N3CCN(C(=O)c4ccco4)CC3)nc(N)c2cc1OC [prazosin]
139 °C | NCc1cccc2c(Br)cccc12 [1-(5-bromonaphthalen-1-yl)methanamine]
24 °C | CC(=O)c1ccc(C)cc1 [p-methylacetophenone]
281 °C | Oc1ccc(C(c2ccccc2)(c2ccccc2)c2ccccc2)cc1 [4-tritylphenol]
55 °C | c1cnccn1 [Pyrazine]
138 °C | COc1ccc(/C=C(\Oc2ccc(Cl)cc2)c2nc3ccccc3s2)cc1
76 °C | COC(=O)c1ccc([N+](=O)[O-])cc1Cl [methyl 2-chloro-4-nitrobenzoate]
67 °C | [O-][n+]1cccc(F)c1 [3-fluoropyridine n-oxide]
79 °C | Cc1ccc(S(=O)(=O)CCCl)cc1 [2-chloroethyl p-tolyl sulfone]
114 °C | CC(=O)Nc1ccccc1 [acetanilide]
126 °C | CC(=O)O/C(=C\C=C(\OC(C)=O)c1ccccc1)c1ccccc1 [(1E,3Z)-4-(acetyloxy)-1,4-diphenylbuta-1,3-dien-1-yl acetate]
181 °C | Cc1ccc(C(=O)O)cc1 [4-Methylbenzoic acid]

melting point | SMILES
189 °C | Cc1cc(C(=O)NCCc2ccc(S(=O)(=O)NC(=O)NN3CCCCCC3)cc2)no1 [glisoxepid]
146 °C (4×) and 147 °C | Cn1cc[nH]c1=S [methimazole]
139 °C | COC(=O)c1cc2ccccc2c(OC(=O)c2ccccc2C)c1C(=O)OC
164 °C | N=C(N)Nc1nc(CSCCC(=N)NS(N)(=O)=O)cs1 [famotidine]
103 °C | CC(=O)OCC(CCn1cnc2cnc(N)nc21)COC(C)=O [Famciclovir]
94 °C | CC(C(=O)O)c1cccc(C(=O)c2ccccc2)c1 (configuration not stated) [ketoprofen]
188 °C | Cc1cn([C@H]2C[C@H](O)[C@@H](CO)O2)c(=O)[nH]c1=O [thymidine]
213 °C | Cc1cncc(C(=O)O)c1 [5-methylnicotinic acid]
235 °C | Cc1ccnc(NS(=O)(=O)c2ccc(N)cc2)n1 [sulfamerazine (polymorph 1)]
11 °C | Cc1cccc(O)c1 [m-cresol]
171 °C | O=C(O)[C@H](O)[C@@H](O)C(=O)O [(2R,3R)-2,3-Dihydroxysuccinic acid]
102 °C | O=C(c1ccccc1)c1ccc(Cl)c(Cl)c1 [3,4-dichlorobenzophenone]
218 °C | O=C1C=C/C(=O)N(N1)C [N-methylmaleic hydrazide]
140 °C | NC(=O)c1ccccc1O [salicylamide]
164 °C | O=C(O)c1cccc(C(=O)c2ccccc2)c1 [3-benzoylbenzoic acid]
223 °C | CC12CCC(=O)C=C1CCC1C2C(O)CC2(C)C1CCC2(O)C(=O)CO (configuration not stated) [hydrocortisone]
90 °C | CCOC(=O)c1ccc(N)cc1 [ethyl 4-aminobenzoate]
122 °C | COc1ccc(C#N)cc1Br [3-bromo-4-methoxybenzonitrile]
112 °C | CC(=O)OC1C(C)OC(OCc2ccccc2)C(OC(C)=O)C1OC(C)=O (configuration not stated) [benzyl 2,3,4-tri-O-acetyl-6-deoxyhexopyranoside]
140 °C | Cc1ncc([N+](=O)[O-])n1C [Dimetridazole]
184 °C | N#Cc1ccc(C(c2ccc(C#N)cc2)n2cncn2)cc1 [Letrozole]

melting point | SMILES
230 °C | N[C@@H](CC(=O)O)C(=O)O [L-Aspartic Acid]
76 °C | CCOC(=O)/C(=N/Nc1ccc(Cl)cc1)C(=O)C(F)(F)F
133 °C | NC(=O)c1ccc(F)c(F)c1 [3,4-difluorobenzamide]
61 °C | c1ccc(P(CCCP(c2ccccc2)c2ccccc2)c2ccccc2)cc1 [1,3-bis(diphenylphosphino)propane]
157 °C | NC(=O)c1ccncc1 [isonicotinamide]
145 °C | CC(=O)Nc1ccccc1S(C)(=O)=O [2'-(methylsulfonyl)acetanilide]
222 °C | N[C@@H](CO)C(=O)O [L-Serine]
185 °C | COc1ccc(C(=O)O)cc1 [4-methoxybenzoic acid]
61 °C | O=[N+]([O-])c1ccccc1/C=C(/Cl)c1ccccn1 [2-[(E)-1-chloro-2-(2-nitrophenyl)ethenyl]pyridine]
65 °C | CC1CCC(C(C)C)C(OC(=O)/C(=C/c2ccccc2)Cc2ccccc2)C1 (configuration not stated)
86 °C | OCCc1ccc(OCc2ccccc2)cc1 [2-(4-benzyloxyphenyl)ethanol]
151 °C | Nc1cccc(Cl)c1C(=O)O [2-amino-6-chlorobenzoic acid]
81 °C | COC(=O)c1ccc(Br)cc1 [methyl_4-bromobenzoate]
139 °C | Nc1ccc(C=C/C(=N/O)c2ccccc2)cc1 [4-[(3Z)-3-(hydroxyimino)-3-phenylprop-1-en-1-yl]aniline]
74 °C | CN(C)c1ccc(C=O)cc1 [4-(Dimethylamino)benzaldehyde]
273 °C | CS(=O)(=O)c1ccc(C(=O)O)cc1 [4-(methylsulfonyl)benzoic acid]
6 °C | Cc1cccc(Cl)c1Cl [2,3-dichlorotoluene]
154 °C | O=C(O)Cc1ccc([N+](=O)[O-])cc1 [4-nitrophenylacetic acid]
207 °C | CC(=O)Nc1ccccc1O [2-acetamidophenol]
